“And” between values parts separate entries of the source, which are not always exact repeats. Equal values may be shown once.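 How tested: cells in 96-well plates exposed to compound for 48 hours at five concentrations. GI50 is the concentration that inhibits growth by half. The concentration for full growth arrest is given as TGI.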
What was measured:
Assay in all cases: inhibition of tumour cell growth, NCI panel, 48 h
K-562 leukemia = test system: K-562 leukemia
KM12 colon = test system: KM12 colon
NCI-H522 lung = test system: NCI-H522 lung
OVCAR-8 ovarian = test system: OVCAR-8 ovarian
SF-539 CNS = test system: SF-539 CNS
HL-60(TB) leukemia = test system: HL-60(TB) leukemia
LOX IMVI melanoma = test system: LOX IMVI melanoma
SNB-75 CNS = test system: SNB-75 CNS
IGROV1 ovarian = test system: IGROV1 ovarian
HOP-92 NSCLC = test system: HOP-92 NSCLC

| Compound | TGI (K-562 leukemia) | TGI (KM12 colon) [µM] | TGI (NCI-H522 lung) | TGI (OVCAR-8 ovarian) | TGI (SF-539 CNS) [µM] | TGI (HL-60(TB) leukemia) | TGI (LOX IMVI melanoma) | TGI (SNB-75 CNS) | TGI (IGROV1 ovarian) | TGI (HOP-92 NSCLC) | GI50 (K-562 leukemia) [µM] | GI50 (KM12 colon) [µM] | GI50 (NCI-H522 lung) [µM] | GI50 (OVCAR-8 ovarian) [µM] | GI50 (SF-539 CNS) [µM] | GI50 (LOX IMVI melanoma) [µM] | GI50 (IGROV1 ovarian) [µM] | GI50 (HOP-92 NSCLC) [µM] |
| --- | --- | --- | --- | --- | --- | --- | --- | --- | --- | --- | --- | --- | --- | --- | --- | --- | --- | --- |
| CC1=C(C(=O)Nc2ccccc2)C2(CCCCC2)C(C#N)=C(SCC(=O)Nc2ccc(Br)cc2)N1 | 23 µM | > 26 | 7.25 µM | 34.9 µM | 32.9 | 13.7 µM | 9.96 µM | 30.3 µM | 14.6 µM | 8.44 µM |  |  |  |  |  |  |  |  |
| CC(=O)Nc1c(C)cc2c(nc3n2CCC3O)c1[N+](=O)[O-] (stereo not given) | > 100 µM | > 100 | > 100 µM | > 100 µM | > 100 | > 100 µM | > 100 µM | > 100 µM | > 100 µM | > 100 µM |  |  |  |  |  |  |  |  |
| COC(=O)C1OC(O[C@H]2CC[C@]3(C)[C@H]4CC=C5[C@@H]6CC(C)(C)CC[C@]6(C(=O)OC6OCC(O)C(O)C6OC6OC(C)C(OC7OCC(O)C(O)C7O)C(O)C6O)CC[C@@]5(C)[C@]4(C)CC[C@H]3C2(C)C)C(O)C(O)C1O (stereo not given in full) | 64.6 µM and 62.2 µM | 30.3 | 30.9 µM and 30.5 µM | 40.7 µM and 42.8 µM |  | 41.3 µM and 35.1 µM | 30.5 µM and 29 µM | 30 µM and 30.4 µM | 75 µM and > 100 µM | 30.9 µM and 39.4 µM |  |  |  |  |  |  |  |  |
| C=C1C2C[C@@H]3O[C@H]4C[C@H]5O[C@@]6(C[C@@H]7O[C@]8(C[C@H](C)[C@@H]9O[C@@H]%10CC(CO)O[C@@H]%10C[C@@H]9O8)C[C@H](C)[C@@H]7O6)C[C@H]5O[C@H]4[C@H](C)[C@H]3OC(=O)C[C@H]3CC[C@@H]4OC5[C@H]6O[C@]7(CC[C@H]8CC(=C)[C@H](CC[C@@H](C[C@H]1C)O2)O8)CC6O[C@@H]5[C@@H](O7)[C@H]4O3 (stereo not given in full) | > 1 µM |  | < 0.0001 µM | 0.00513 µM |  |  | > 0.433 µM | > 1 µM | > 1 µM | > 1 µM |  |  |  |  |  |  |  |  |
| COc1cc2c(cc1OCCCC(=O)Nc1ccc3ccc4cccc5ccc1c3c45)N=C[C@@H]1CCCN1C2=O | 14.1 µM | 0.725 |  | < 0.0245 µM | < 0.01 |  | > 100 µM | 1.12 µM |  | 1.07 µM | 0.19 | 0.104 | < 0.0133 | < 0.0134 | < 0.01 | 0.0143 | < 0.0167 | 0.147 |
| COc1ccc(/C=C2\CCC(C)C3=C2N=c2s/c(=C/c4cccc(Br)c4)c(=O)n2C3c2ccc(OC)c(OC)c2)cc1OC (stereo not given) | > 100 µM | > 100 |  | > 100 µM |  | > 100 µM | > 100 µM |  | > 100 µM | > 100 µM |  |  |  |  |  |  |  |  |
| Cc1ccc2c(c1)-c1nc(N)c(C#N)c(-c3ccccc3)c1CCS2(=O)=O | > 100 µM | > 100 | > 100 µM | 56.5 µM |  |  | > 100 µM | 81.8 µM | > 100 µM | 80.3 µM |  |  |  |  |  |  |  |  |
| O=C1Oc2cc(O)cc(/C=C/c3ccc(O)cc3)c2[C@@]12c1c(O)cc(O)cc1OC2c1cccc(O)c1 (stereo not given in full) | > 100 µM | > 100 |  | > 100 µM | > 100 | 97.9 µM | 75.3 µM | > 100 µM | 31 µM | > 100 µM |  |  |  |  |  |  |  |  |
| O=C(NCCCCCCNC(=O)c1cc(-c2ccccc2)nc2ccccc12)c1cc(-c2ccccc2)nc2ccccc12 | > 100 µM |  | > 100 µM | > 100 µM | > 100 | > 100 µM | > 100 µM | > 100 µM | > 100 µM | > 100 µM |  |  |  |  |  |  |  |  |
| C=C(Br)CNC(=O)CCC(=O)NCC(=C)Br | > 100 µM | > 100 | > 100 µM | > 100 µM | > 100 | > 100 µM | > 100 µM | > 100 µM | > 100 µM |  |  |  |  |  |  |  |  |  |
| O=C1c2ccc(O)c(O)c2C(=O)c2c(O)ccc(O)c21 | 70.9 µM | 98.9 | 3.03 µM | 80.8 µM | 49.2 |  | 44.3 µM |  | > 100 µM | 57.7 µM |  |  |  |  |  |  |  |  |
| C[C@@H]1CC[C@@H]2[C@@H](C1)O[C@@H]([C@H](C)OCc1ccccc1)SC2(C)C | 39.5 µM | 36.1 | 40.2 µM | > 100 µM | > 100 |  | 32.8 µM | 49.2 µM | > 100 µM |  |  |  |  |  |  |  |  |  |
| N#Cc1c(N)nc(Sc2ccccc2N)c(C#N)c1-c1ccc(Cl)cc1 | > 42 µM | 35.9 | 35.8 µM | 41 µM | 26.7 | > 100 µM | 15.3 µM |  | 33.6 µM | 53.1 µM |  |  |  |  |  |  |  |  |
| COc1ccc2nc(-c3ccc(O)cc3)sc2c1 | > 100 µM | 86.9 | 31.2 µM | 45.1 µM | 37.1 | 53.5 µM | 44.9 µM |  | 36.2 µM |  |  |  |  |  |  |  |  |  |
| CO/N=C(\C)c1cccc(Nc2c3ccccc3nc3occc23)c1 | > 100 µM | 39.5 | 7.64 µM | 66.4 µM | 21.5 | 13.6 µM | 27.4 µM |  | 19.4 µM | 43.2 µM |  |  |  |  |  |  |  |  |
| Cc1nc2c(=O)n(C)ncc2[nH]1 | > 100 µM | > 100 |  | > 100 µM | > 100 | > 100 µM |  | > 100 µM | > 100 µM |  |  |  |  |  |  |  |  |  |
| COI1NC(=O)c2ccccc21 | > 100 µM | > 100 | > 100 µM | > 100 µM |  | > 100 µM | > 100 µM | > 100 µM | > 100 µM | > 100 µM |  |  |  |  |  |  |  |  |
| CCCC(=O)OC1C(CO)OC(n2cc(F)c(=O)[nH]c2=O)C1F (stereo not given) |  | > 100 | > 100 µM | > 100 µM | > 100 | > 100 µM | > 100 µM | > 100 µM | > 100 µM | > 100 µM |  |  |  |  |  |  |  |  |
| COCN1C(=O)[C@@H]2CCCN2C(=O)c2cc(N)ccc21 |  | > 100 | > 100 µM | > 100 µM | > 100 |  | > 100 µM | > 100 µM | > 100 µM |  |  |  |  |  |  |  |  |  |
| Cc1cn(CC2=NCC(C)N2)c(=O)[nH]c1=O (stereo not given) | > 100 µM |  | > 100 µM | > 100 µM |  |  | > 100 µM | > 100 µM | > 100 µM | > 100 µM |  |  |  |  |  |  |  |  |
| O=C1c2ccccc2C(=O)N1CC(O)COc1cccc2ccccc12 (stereo not given) | > 100 µM |  | > 100 µM | > 100 µM |  | > 100 µM | > 100 µM |  | > 100 µM |  |  |  |  |  |  |  |  |  |

— PubChem BioAssay (NCI)
